Tumor growth, tumor regression and IC50 data for 4 compounds are collected here from patent publication US6492410B1, “Combinations of protein farnesyltransferase and HMG CoA reductase inhibitors and their use to treat cancer” (Warner-Lambert Company, priority 1998, dated 2002).

Assay [1] concerns EJ-1 human bladder carcinoma. As to conditions: 100 mg/kg; EJ-1 xenograft in nude mice; cited from earlier work.
The test system of assay [2] is human colon carcinoma xenografts. As to conditions: 100 mg/kg; human colon carcinoma xenograft in nude mice; cited from earlier work. (In general: Xenograft models place foreign cells or tissue in a host animal.)
Assay [3] has as its system HT1080 human fibrosarcoma. As to conditions: 100 mg/kg; HT1080 xenograft in nude mice; cited from earlier work.
For assay [4], the system named is human lung carcinoma with K-ras mutation and p53 deletion. The following applies: nude mice; cited from earlier work.
In assay [5] the test system is mammary and salivary carcinomas. The following applies: daily administration; ras transgenic mice; cited from earlier work.
The test system of another assay is Colon26. The assay is described as follows: cells. The following applies: Mus musculus, Colon 26, 72 h, read-out: IC50 (concentration at which growth (cell#) is reduced by 50%). Here is the method:
(§1) A proliferation assay was performed to ascertain the toxicity of a combination of a famesyl protein transferase and lovastatin at various concentrations to a number of cancerous cell lines. The assay was also performed to ascertain the toxicity of the farnesyl protein transferase alone as a comparison against the combination.
(§2) Cell lines (Panc-1, Colon26, HT-29 Colon, H460 Lung, H-ras NIH 3T3 fibroblast, P388/ADR leukemia, and P388/S leukemia) were set up at various starting concentrations in 24- or 12-well dishes. Suspension cells were treated immediately; attached monolayer cells were allowed to attach for 24 hours prior to treatment. The cells were treated in one series of tests with lovastatin and solvent (DMSO); in another series of tests with a combination of lovastatin, solvent (DMSO) and the farnesyltransferase inhibitor, (S)-[1-{(4-benzyloxy-benzyl)-[(2-methyl-2-phenyl-propyl carbamoyl)-methyl]-carbamoyl}-2-(3H1-imidazol-4-yl)-ethyl]-carbamic acid benzyl ester (Compound A); and in a third series of cells were treated with only the farnesyltransferase inhibitor. After 72 hours of treatment, the cells (growing in 1 mL of medium) are trypsinized with warm (37 degrees celsius) trypsin-EDTA (0.5 mL for 1-2 minutes), agitated, rescued with 0.5 mL of warm (37) medium, then diluted in […] Isoton (isotonic saline) for a final volume of 10 mL, 0.5 mL are then counted on a Coulter cell counter.
(§3) The data for lovastatin treatment alone is relative to the DMSO-treated controls; the data for combination treatment is relative to the PFT inhibitor treatment alone samples.

For a further assay, the system named is HT-29 Colon. The assay is described as follows: cells. As to conditions: Homo sapiens, HT-29, 72 h, read-out: IC50 (concentration at which growth (cell#) is reduced by 50%). As to the method:
as §1, §2, §3

The next assay deals with P388/S leukemia. The assay is described as follows: cells. The following applies: Mus musculus, 72 h, read-out: IC50 (concentration at which growth (cell#) is reduced by 50%). Here is the method: as §1, §2, §3
The test system of the next assay is H460 Lung. As to the kind of experiment: cells. The following applies: Homo sapiens, NCI-H460, 72 h, read-out: IC50 (concentration at which growth (cell#) is reduced by 50%). As to the method:
as §1, §2, §3

The next assay deals with P388/ADR leukemia. As to the kind of experiment: cells. The following applies: Mus musculus, 72 h, read-out: IC50 (concentration at which growth (cell#) is reduced by 50%). As to the method: as §1, §2, §3
For another assay, the system named is Panc-1. The assay is described as follows: cells. As to conditions: Homo sapiens, PANC-1, 72 h, read-out: IC50 (concentration at which growth (cell#) is reduced by 50%). Here is the method: as §1, §2, §3
The subject of another assay is H-ras NIH 3T3 fibroblast. The assay is described as follows: cells. As to conditions: Mus musculus, NIH3T3, 72 h, read-out: IC50 (concentration at which growth (cell#) is reduced by 50%). As to the method:
as §1, §2, §3

The subject of assay [6] is hepatocellular, pancreatic, and central nervous system tumors. The following applies: in vitro and in animal models; cited from earlier work.

For `COC(=O)[C@H](CCSC)NC(=O)[C@H](/C=C\[C@@H](/C=C/[C@@H](N)CS)C(C)C)Cc1ccccc1` [B 1086], the tumor growth entry in assay [1], in assay [2] and in assay [3] was “inhibit tumor growth” in each case.
On to `CSCC[C@H](NC(=O)c1ccc(NC[C@@H](N)CS)cc1-c1ccccc1)C(=O)O` [FT1276], for which the tumor growth result in assay [4] is listed as “selectively block tumor growth”.
As to `CC[C@H](C)[C@@H](CO[C@@H](Cc1ccccc1)C(=O)N[C@@H](CCS(C)(=O)=O)C(=O)OC(C)C)NC[C@@H](N)CS` [L-744,832], the tumor regression entry in assay [5] is “caused tumor regression”.
`CC[C@H](C)C(=O)O[C@H]1C[C@@H](C)C=C2C=C[C@H](C)[C@H](CC[C@@H]3C[C@@H](O)CC(=O)O3)[C@H]21` [Lovastatin, lovastatin]: the IC50 came to 1.2 µM in the assay on Colon26; 11.4 µM in the assay with HT-29 Colon; 4 µM in the assay with P388/S leukemia; 5.5 µM in the assay on H460 Lung; 10.7 µM in the assay on P388/ADR leukemia; 18.8 µM with Panc-1. The IC50 in the assay on H-ras NIH 3T3 fibroblast came to 17.4 µM. In addition, in [6], the tumor growth entry is “selectively inhibited tumor growth”.
